Data: PMC6934184, “Selective DNA-PKcs inhibition extends the therapeutic index of localized radiotherapy and chemotherapy” (The Journal of Clinical Investigation, 2019)

Target: T1, MST4 (Homo sapiens, UniProt Q9P289)
T1 construct: purchased Thermo Fisher Scientific (Life Technologies) SelectScreen
Assay: SelectScreen Z'LYTE
Type: biochemical
Outline: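 SelectScreen broad panel; activity (Z'LYTE, Adapta) plus binding formats. ATP: Km app for CSF1R Z'LYTE; 10 for CAMK1 Adapta. Readout = % per kinase.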

T1 sequence (Q9P289 whole entry): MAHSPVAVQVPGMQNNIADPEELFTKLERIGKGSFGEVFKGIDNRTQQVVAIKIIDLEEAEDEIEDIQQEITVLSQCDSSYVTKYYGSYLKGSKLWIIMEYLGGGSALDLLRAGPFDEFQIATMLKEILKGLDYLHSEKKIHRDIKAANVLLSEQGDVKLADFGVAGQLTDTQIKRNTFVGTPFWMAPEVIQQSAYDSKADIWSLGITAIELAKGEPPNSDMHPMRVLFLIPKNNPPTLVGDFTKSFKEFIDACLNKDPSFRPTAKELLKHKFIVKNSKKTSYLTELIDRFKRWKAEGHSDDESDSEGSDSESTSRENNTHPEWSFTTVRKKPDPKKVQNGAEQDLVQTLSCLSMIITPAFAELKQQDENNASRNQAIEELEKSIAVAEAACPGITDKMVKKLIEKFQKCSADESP

CN(C(=O)CN1CCOCC1)c1ccc2sc3c(-c4cccc5c(=O)cc(N6CC7CCC(C6)O7)oc45)cccc3c2c1 [NU5455]
inhibition at 1 µM: 6.9%
